Measured values as given in patent US12258328B2, “6-membered heteroaryl-containing aminopyridine compounds as EGFR inhibitors” (YUHAN CORPORATION, priority 2021, dated 2025).
Read-outs that look alike come from different tables or passages of the source.

How the values were obtained:
[1] = biological target: EGFR del19/T790M/C797S (Homo sapiens, UniProt P00533, C797S/DEL746-750/T790M); assay: Biochemical EGFR kinase assay (Lance Ultra TR-FRET), triple mutant del19/T790M/C797S
Method in brief: (§1)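 Step 1: compound in kinase buffer, 0.003–10 μM. Step 2: kinase reaction 1 h at room temperature. Step 4: TR-FRET read at 615/665 nm; IC50 calculated.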

[2] = biological target: EGFR L858R/T790M/C797S (Homo sapiens, UniProt P00533, C797S/L858R/T790M); assay: Biochemical EGFR kinase assay (Lance Ultra TR-FRET), triple mutant L858R/T790M/C797S
Method in brief: as §1

[3] = biological target: EGFR wildtype (Homo sapiens, UniProt P00533); assay: Biochemical EGFR kinase assay (Lance Ultra TR-FRET), wildtype
Method in brief: as §1

[4] = biological target: EGFR del19/C797S (Homo sapiens, UniProt P00533, C797S/DEL746-750); assay: Biochemical EGFR kinase assay (Lance Ultra TR-FRET), double mutant del19/C797S
Method in brief: as §1

[5] = biological target: EGFR L858R/C797S (Homo sapiens, UniProt P00533, C797S/L858R); assay: Biochemical EGFR kinase assay (Lance Ultra TR-FRET), double mutant L858R/C797S
Method in brief: as §1

[6] = IC50 del19/T790M/C797S (nM) 100 μM ATP, 100 μM ATP
[7] = Km ATP, read-out: IC50 del19/T790M/C797S (nM) Km ATP
[8] = IC50 L858R/T790M/C797S (nM) 100 μM ATP, 100 μM ATP
[9] = Km ATP, read-out: IC50 L858R/T790M/C797S (nM) Km ATP
[10] = IC50 WT (nM) 100 μM ATP, 100 μM ATP
[11] = Km ATP, read-out: IC50 WT (nM) Km ATP
[12] = IC50 del19/C797S (nM) 100 μM ATP, 100 μM ATP
[13] = Km ATP, read-out: IC50 del19/C797S (nM) Km ATP
[14] = IC50 L858R/C797S (nM) 100 μM ATP, 100 μM ATP
[15] = Km ATP, read-out: IC50 L858R/C797S (nM) Km ATP

Chain of EGFR L858R/T790M/C797S (P00533 25-1210 T790M/C797S/L858R): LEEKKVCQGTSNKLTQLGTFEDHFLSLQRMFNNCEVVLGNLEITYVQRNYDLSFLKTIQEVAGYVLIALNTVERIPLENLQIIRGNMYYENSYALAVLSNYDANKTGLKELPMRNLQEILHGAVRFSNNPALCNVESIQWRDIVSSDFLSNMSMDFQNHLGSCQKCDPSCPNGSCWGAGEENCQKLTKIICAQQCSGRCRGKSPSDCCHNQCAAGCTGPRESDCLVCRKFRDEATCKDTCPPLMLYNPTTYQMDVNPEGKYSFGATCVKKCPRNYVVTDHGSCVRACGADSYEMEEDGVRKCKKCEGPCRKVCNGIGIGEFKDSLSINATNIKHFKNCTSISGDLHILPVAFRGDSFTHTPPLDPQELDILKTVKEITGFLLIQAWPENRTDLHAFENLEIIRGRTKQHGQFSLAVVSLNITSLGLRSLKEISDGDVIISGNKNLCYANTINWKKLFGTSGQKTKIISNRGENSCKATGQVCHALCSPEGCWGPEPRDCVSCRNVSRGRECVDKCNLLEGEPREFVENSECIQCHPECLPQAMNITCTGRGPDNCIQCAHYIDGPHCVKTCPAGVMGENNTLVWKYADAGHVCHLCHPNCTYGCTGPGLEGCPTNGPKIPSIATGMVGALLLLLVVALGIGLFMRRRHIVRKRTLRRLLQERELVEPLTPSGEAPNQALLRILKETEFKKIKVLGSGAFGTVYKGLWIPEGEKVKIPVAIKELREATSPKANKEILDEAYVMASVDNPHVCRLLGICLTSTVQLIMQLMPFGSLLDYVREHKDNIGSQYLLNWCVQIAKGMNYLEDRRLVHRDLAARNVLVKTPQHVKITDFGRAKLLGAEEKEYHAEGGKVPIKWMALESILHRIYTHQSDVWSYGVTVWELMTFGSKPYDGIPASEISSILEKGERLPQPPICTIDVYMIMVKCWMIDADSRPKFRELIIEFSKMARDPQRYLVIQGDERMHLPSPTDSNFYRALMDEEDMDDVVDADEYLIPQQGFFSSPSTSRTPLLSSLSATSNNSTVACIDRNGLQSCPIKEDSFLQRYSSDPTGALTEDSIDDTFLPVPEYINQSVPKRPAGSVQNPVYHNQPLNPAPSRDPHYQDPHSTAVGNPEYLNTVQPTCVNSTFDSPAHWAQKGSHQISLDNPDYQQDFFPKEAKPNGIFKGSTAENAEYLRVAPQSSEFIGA
Chain of EGFR L858R/C797S (P00533 25-1210 C797S/L858R): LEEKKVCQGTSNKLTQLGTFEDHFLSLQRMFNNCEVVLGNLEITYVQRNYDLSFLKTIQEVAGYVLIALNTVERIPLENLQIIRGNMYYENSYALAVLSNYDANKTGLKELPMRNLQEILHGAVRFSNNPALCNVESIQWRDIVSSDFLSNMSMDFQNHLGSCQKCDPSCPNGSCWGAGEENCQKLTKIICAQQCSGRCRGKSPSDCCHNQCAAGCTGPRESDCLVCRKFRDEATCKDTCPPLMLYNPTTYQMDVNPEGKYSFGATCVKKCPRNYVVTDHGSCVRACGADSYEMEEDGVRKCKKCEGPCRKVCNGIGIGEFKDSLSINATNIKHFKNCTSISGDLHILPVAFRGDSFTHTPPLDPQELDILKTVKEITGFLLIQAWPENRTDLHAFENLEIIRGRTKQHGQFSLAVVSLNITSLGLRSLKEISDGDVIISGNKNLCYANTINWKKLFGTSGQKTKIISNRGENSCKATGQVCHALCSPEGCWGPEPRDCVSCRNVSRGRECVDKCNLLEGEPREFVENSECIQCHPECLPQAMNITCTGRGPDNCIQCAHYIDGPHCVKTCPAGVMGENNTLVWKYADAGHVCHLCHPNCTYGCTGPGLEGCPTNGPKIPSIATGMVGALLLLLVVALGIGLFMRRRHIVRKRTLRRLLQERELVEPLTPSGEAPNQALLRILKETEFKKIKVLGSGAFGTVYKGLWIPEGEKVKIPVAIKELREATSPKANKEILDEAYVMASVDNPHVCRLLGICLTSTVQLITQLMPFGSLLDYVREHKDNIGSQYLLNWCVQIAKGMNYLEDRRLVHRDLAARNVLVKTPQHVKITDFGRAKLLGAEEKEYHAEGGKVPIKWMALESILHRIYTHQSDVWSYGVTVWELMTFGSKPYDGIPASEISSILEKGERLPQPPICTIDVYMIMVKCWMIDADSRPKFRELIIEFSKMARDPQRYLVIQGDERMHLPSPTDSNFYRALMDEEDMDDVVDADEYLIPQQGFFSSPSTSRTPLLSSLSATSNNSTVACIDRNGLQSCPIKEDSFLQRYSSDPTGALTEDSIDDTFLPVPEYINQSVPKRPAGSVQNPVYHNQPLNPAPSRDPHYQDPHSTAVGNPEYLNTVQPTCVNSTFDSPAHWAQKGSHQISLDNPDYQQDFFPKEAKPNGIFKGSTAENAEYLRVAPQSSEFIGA
Chain of EGFR wildtype (P00533 25-1210): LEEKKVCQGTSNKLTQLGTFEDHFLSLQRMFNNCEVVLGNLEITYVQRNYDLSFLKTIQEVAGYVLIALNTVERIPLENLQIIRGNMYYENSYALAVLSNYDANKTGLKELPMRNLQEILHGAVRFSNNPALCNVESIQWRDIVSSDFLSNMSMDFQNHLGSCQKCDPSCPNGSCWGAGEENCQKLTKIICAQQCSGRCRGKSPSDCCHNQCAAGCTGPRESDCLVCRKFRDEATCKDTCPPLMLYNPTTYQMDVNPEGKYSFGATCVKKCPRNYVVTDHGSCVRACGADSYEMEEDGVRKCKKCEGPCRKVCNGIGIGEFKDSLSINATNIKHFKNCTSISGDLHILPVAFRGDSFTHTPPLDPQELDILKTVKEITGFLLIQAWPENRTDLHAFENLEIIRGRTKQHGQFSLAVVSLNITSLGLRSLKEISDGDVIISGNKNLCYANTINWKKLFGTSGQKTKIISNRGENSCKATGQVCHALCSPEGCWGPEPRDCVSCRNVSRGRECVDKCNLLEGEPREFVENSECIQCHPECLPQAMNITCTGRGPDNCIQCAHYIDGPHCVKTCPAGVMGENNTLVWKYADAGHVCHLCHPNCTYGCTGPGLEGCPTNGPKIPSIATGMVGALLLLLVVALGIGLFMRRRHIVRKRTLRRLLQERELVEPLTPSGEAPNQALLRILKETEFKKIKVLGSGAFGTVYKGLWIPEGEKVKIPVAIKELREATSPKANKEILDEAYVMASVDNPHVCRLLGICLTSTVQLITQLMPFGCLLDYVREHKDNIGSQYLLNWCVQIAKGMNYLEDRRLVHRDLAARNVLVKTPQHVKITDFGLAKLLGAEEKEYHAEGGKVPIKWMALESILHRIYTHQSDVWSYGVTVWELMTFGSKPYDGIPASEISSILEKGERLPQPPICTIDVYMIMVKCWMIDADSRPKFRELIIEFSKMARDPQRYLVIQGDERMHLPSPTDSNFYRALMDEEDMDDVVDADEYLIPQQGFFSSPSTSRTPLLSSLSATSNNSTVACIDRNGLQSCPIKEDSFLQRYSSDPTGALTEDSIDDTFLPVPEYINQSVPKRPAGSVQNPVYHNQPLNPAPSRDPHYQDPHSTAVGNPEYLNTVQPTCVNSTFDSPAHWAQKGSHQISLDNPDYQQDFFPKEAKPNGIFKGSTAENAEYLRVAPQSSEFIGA
Chain of EGFR del19/T790M/C797S (P00533 with tags, fused parts or gaps DEL746-750/T790M/C797S): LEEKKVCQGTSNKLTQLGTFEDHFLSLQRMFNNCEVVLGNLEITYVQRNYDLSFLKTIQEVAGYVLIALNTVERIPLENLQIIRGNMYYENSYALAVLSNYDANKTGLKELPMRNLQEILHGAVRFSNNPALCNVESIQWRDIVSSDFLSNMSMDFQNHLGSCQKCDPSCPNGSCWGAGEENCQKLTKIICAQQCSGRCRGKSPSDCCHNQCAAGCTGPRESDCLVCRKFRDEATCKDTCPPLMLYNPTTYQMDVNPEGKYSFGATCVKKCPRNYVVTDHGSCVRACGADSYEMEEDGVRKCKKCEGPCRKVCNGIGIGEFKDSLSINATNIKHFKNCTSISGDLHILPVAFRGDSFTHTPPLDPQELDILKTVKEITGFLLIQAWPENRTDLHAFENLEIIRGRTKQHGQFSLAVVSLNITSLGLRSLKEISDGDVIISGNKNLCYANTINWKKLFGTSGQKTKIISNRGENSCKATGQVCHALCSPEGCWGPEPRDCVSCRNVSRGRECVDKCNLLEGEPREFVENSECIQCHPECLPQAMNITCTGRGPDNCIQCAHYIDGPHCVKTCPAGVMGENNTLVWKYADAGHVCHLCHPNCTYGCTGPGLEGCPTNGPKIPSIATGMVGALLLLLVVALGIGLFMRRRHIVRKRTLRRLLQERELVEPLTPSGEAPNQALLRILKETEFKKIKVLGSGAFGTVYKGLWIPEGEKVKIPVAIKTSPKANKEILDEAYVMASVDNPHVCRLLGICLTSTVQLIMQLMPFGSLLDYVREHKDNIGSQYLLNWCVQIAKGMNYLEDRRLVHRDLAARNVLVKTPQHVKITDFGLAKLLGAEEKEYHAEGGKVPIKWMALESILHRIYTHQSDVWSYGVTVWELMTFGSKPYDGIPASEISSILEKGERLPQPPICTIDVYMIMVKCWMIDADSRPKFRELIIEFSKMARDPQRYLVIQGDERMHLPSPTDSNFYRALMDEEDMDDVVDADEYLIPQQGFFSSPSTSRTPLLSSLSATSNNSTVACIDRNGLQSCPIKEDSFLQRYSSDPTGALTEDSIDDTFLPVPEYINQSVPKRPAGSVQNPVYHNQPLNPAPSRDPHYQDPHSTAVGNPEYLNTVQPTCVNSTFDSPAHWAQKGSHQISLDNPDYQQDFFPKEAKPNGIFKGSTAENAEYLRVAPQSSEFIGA

Row | Structure (SMILES) | IC50 [1, 6] [nM] | IC50 [1, 7] [nM] | IC50 [2, 8] [nM] | IC50 [2, 9] [nM] | IC50 [3, 10] [nM] | IC50 [3, 11] [nM] | IC50 [4, 12] [nM] | IC50 [4, 13] [nM] | IC50 [5, 14] [nM] | IC50 [5, 15] [nM]
1 | C[C@]1(O)CC[C@@H](Nc2cc(Nc3ccnc(-c4cnn(S(=O)(=O)C5CC5)c4)n3)ncc2-c2ccc(N3CC4(COC4)C3)nn2)CC1 [Example 67, (1s,4s)-4-((5-(6-(2-Oxa-6-azaspiro[3.3]heptan-6-yl)pyridazin-3-yl)-2-((2-(1-(cyclopropylsulfonyl)-1H-pyrazol-4-yl)pyrimidin-4-yl)amino)pyridin-4-yl)amino)-1-methylcyclohexan-1-ol] | 0.3 | 0.3 | 0.3 | 0.1 | > 10000 | 3.7 | 0.5 | 0.5 | 4.5 | 0.8
2 | C[C@]1(O)CC[C@@H](Nc2cc(Nc3ccnc(-c4cnn(S(=O)(=O)C5CC5)c4)n3)ncc2-c2ccc(N3CCC(F)(F)CC3)nn2)CC1 [Example 68, (1s,4s)-4-((2-((2-(1-(Cyclopropylsulfonyl)-1H-pyrazol-4-yl)pyrimidin-4-yl)amino)-5-(6-(4,4-difluoropiperidin-1-yl)pyridazin-3-yl)pyridin-4-yl)amino)-1-methylcyclohexan-1-ol] | – | 0.9 | 0.8 | 0.8 | > 10000 | 23.2 | 4.9 | 2.8 | 124 | 1.1
3 | O=S(=O)(C1CC1)n1cc(-c2nccc(Nc3cc(N[C@H]4CC[C@@H](CO)CC4)c(-c4ccc(N5CCC(F)(F)CC5)nn4)cn3)n2)cn1 [Example 69, ((1s,4s)-4-((2-((2-(1-(Cyclopropylsulfonyl)-1H-pyrazol-4-yl)pyrimidin-4-yl)amino)-5-(6-(4,4-difluoropiperidin-1-yl)pyridazin-3-yl)pyridin-4-yl)amino)cyclohexyl)methanol] | 1.6 | 1.9 | 1.4 | 0.8 | 4780 | 14.5 | 5.3 | 2.4 | 52.7 | 1.4
4 | O=S(=O)(C1CC1)n1cc(-c2nccc(Nc3cc(N[C@H]4CC[C@@H](CO)CC4)c(-c4cnc(N5CCC(F)(F)CC5)cn4)cn3)n2)cn1 [Example 70, ((1s,4s)-4-((2-((2-(1-(Cyclopropylsulfonyl)-1H-pyrazol-4-yl)pyrimidin-4-yl)amino)-5-(5-(4,4-difluoropiperidin-1-yl)pyrazin-2-yl)pyridin-4-yl)amino)cyclohexyl)methanol] | 3.9 | – | 4.9 | – | > 10000 | – | 13.1 | – | 81.1 | –
5 | CC(C)(O)[C@H]1CC[C@@H](Nc2cc(Nc3ccnc(-c4cnn(S(=O)(=O)C5CC5)c4)n3)ncc2-c2ccc(N3CCC(F)(F)CC3)nn2)CC1 [Example 71, 2-((1s,4s)-4-((2-((2-(1-(Cyclopropylsulfonyl)-1H-pyrazol-4-yl)pyrimidin-4-yl)amino)-5-(6-(4,4-difluoropiperidin-1-yl)pyridazin-3-yl)pyridin-4-yl)amino)cyclohexyl)propan-2-ol] | 4.5 | – | 4.1 | – | > 10000 | – | 44.2 | – | 355 | –
6 | CC(C)(O)[C@H]1CC[C@@H](Nc2cc(Nc3ccnc(-c4cnn(S(=O)(=O)C5CC5)c4)n3)ncc2-c2cnc(N3CCC(F)(F)CC3)cn2)CC1 [Example 72, 2-((1s,4s)-4-((2-((2-(1-(Cyclopropylsulfonyl)-1H-pyrazol-4-yl)pyrimidin-4-yl)amino)-5-(5-(4,4-difluoropiperidin-1-yl)pyrazin-2-yl)pyridin-4-yl)amino)cyclohexyl)propan-2-ol] | 12.7 | 10.7 | 12.2 | 1.7 | > 10000 | 84.2 | 21.7 | 22.4 | 2430 | 61.4
7 | CN(C)C[C@H]1CC[C@@H](Nc2cc(Nc3ccnc(-c4cnn(S(=O)(=O)C5CC5)c4)n3)ncc2-c2ccc(N3CCC(F)(F)CC3)nn2)CC1 [Example 73, N^2-(2-(1-(Cyclopropylsulfonyl)-1H-pyrazol-4-yl)pyrimidin-4-yl)-5-(6-(4,4-difluoropiperidin-1-yl)pyridazin-3-yl)-N^4-((1s,4s)-4-((dimethylamino)methyl)cyclohexyl)pyridine-2,4-diamine] | 0.7 | 0.4 | 0.5 | 0.2 | 562 | 2.2 | 0.5 | 0.4 | 16.3 | –
8 | CN(C)C[C@H]1CC[C@@H](Nc2cc(Nc3ccnc(-c4cnn(S(=O)(=O)C5CC5)c4)n3)ncc2-c2cnc(N3CCC(F)(F)CC3)cn2)CC1 [Example 74, N^2-(2-(1-(Cyclopropylsulfonyl)-1H-pyrazol-4-yl)pyrimidin-4-yl)-5-(5-(4,4-difluoropiperidin-1-yl)pyrazin-2-yl)-N^4-((1s,4s)-4-((dimethylamino)methyl)cyclohexyl)pyridine-2,4-diamine] | 2.2 | 1.6 | 2.8 | 0.6 | 1610 | 9.1 | 2.4 | 0.7 | 43.9 | 3.2
9 | C[C@]1(O)CC[C@@H](Nc2cc(Nc3ccnc(-c4cnn(S(=O)(=O)C5CC5)c4)n3)ncc2-c2cnc(N3CCC(F)(F)CC3)cn2)CC1 [Example 75, (1s,4s)-4-((2-((2-(1-(Cyclopropylsulfonyl)-1H-pyrazol-4-yl)pyrimidin-4-yl)amino)-5-(5-(4,4-difluoropiperidin-1-yl)pyrazin-2-yl)pyridin-4-yl)amino)-1-methylcyclohexan-1-ol] | 15.2 | 8.7 | 15.2 | 6.6 | > 10000 | 143 | 33.2 | 34 | 313 | 68.9
10 | C[C@]1(O)CC[C@@H](Nc2cc(Nc3ccnc(-c4cnn(S(=O)(=O)C5CC5)c4)n3)ncc2-c2cc(C(F)F)ccn2)CC1 [Example 76, (1s,4s)-4-((6′-((2-(1-(Cyclopropylsulfonyl)-1H-pyrazol-4-yl)pyrimidin-4-yl)amino)-4-(difluoromethyl)-[2,3′-bipyridin]-4′-yl)amino)-1-methylcyclohexan-1-ol] | 1 | 2 | 0.8 | 0.9 | > 10000 | 8.1 | 2 | 1.6 | 14.5 | 2.1
11 | O=S(=O)(C1CC1)n1cc(-c2nccc(Nc3cc(N[C@H]4CC[C@@H](CO)CC4)c(-c4cc(C(F)F)ccn4)cn3)n2)cn1 [Example 77, ((1s,4s)-4-((6′-((2-(1-(Cyclopropylsulfonyl)-1H-pyrazol-4-yl)pyrimidin-4-yl)amino)-4-(difluoromethyl)-[2,3′-bipyridin]-4′-yl)amino)cyclohexyl)methanol] | 1.7 | 2.1 | 1.4 | 1.1 | 1560 | 4 | 2.3 | 2.2 | 13 | 4.1
12 | CC(C)(O)[C@H]1CC[C@@H](Nc2cc(Nc3ccnc(-c4cnn(S(=O)(=O)C5CC5)c4)n3)ncc2-c2cc(C(F)F)ccn2)CC1 [Example 78, 2-((1s,4s)-4-((6′-((2-(1-(Cyclopropylsulfonyl)-1H-pyrazol-4-yl)pyrimidin-4-yl)amino)-4-(difluoromethyl)-[2,3′-bipyridin]-4′-yl)amino)cyclohexyl)propan-2-ol] | 5.5 | 6.8 | 5.4 | – | > 10000 | 23.6 | 15.8 | 8.8 | 85.5 | 16.6
13 | CN(C)C[C@H]1CC[C@@H](Nc2cc(Nc3ccnc(-c4cnn(S(=O)(=O)C5CC5)c4)n3)ncc2-c2cc(C(F)F)ccn2)CC1 [Example 79, N^6′-(2-(1-(Cyclopropylsulfonyl)-1H-pyrazol-4-yl)pyrimidin-4-yl)-4-(difluoromethyl)-N^4′-((1s,4s)-4-((dimethylamino)methyl)cyclohexyl)-[2,3′-bipyridine]-4′,6′-diamine] | 0.5 | 0.8 | 0.5 | 0.3 | 450 | 1.4 | 0.6 | 0.4 | 4.7 | 0.7
14 | C[C@]1(O)CC[C@@H](Nc2cc(Nc3ccnc(-c4cnn(S(=O)(=O)C5CC5)c4)n3)ncc2-c2ccc(N3CCCC3)cn2)CC1 [Example 80, (1s,4s)-4-((6′-((2-(1-(Cyclopropylsulfonyl)-1H-pyrazol-4-yl)pyrimidin-4-yl)amino)-5-(pyrrolidin-1-yl)-[2,3′-bipyridin]-4′-yl)amino)-1-methylcyclohexan-1-ol] | 6.2 | 3.8 | 6.3 | 2.8 | 4410 | 11.4 | 8.4 | 2.5 | 11.1 | 2.3
